Test results reported in PubChem BioAssay (NCI).
Values joined by “and” are separate entries in the source; they are usually repeats but may differ in a detail not shown here. Equal values may be shown once.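 GI50 is the concentration that inhibits growth by half. TGI is the concentration that stops growth completely.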

Tests used:
Assay in all cases: NCI-60 cell line screen, 384-well format
IGROV1 ovarian = system: IGROV1 ovarian
MDA-MB-435 melanoma = system: MDA-MB-435 melanoma
MALME-3M melanoma = system: MALME-3M melanoma
OVCAR-3 ovarian = system: OVCAR-3 ovarian
HS 578T breast = system: HS 578T breast
OVCAR-5 ovarian = system: OVCAR-5 ovarian
CAKI-1 renal = system: CAKI-1 renal
SNB-19 CNS = system: SNB-19 CNS
EKVX NSCLC = system: EKVX NSCLC
SK-MEL-5 melanoma = system: SK-MEL-5 melanoma
HOP-62 NSCLC = system: HOP-62 NSCLC
T-47D breast = system: T-47D breast
CCRF-CEM leukemia = system: CCRF-CEM leukemia
COLO 205 colon = system: COLO 205 colon
HT29 colon = system: HT29 colon
SN12C renal = system: SN12C renal
SK-MEL-28 melanoma = system: SK-MEL-28 melanoma
BT-549 breast = system: BT-549 breast
NCI-H460 NSCLC = system: NCI-H460 NSCLC
K-562 leukemia = system: K-562 leukemia
HCT-116 colon = system: HCT-116 colon
NCI-H23 lung = system: NCI-H23 lung
OVCAR-8 ovarian = system: OVCAR-8 ovarian
MOLT-4 leukemia = system: MOLT-4 leukemia
A498 renal = system: A498 renal
SK-MEL-2 melanoma = system: SK-MEL-2 melanoma
TK-10 renal = system: TK-10 renal
RPMI-8226 leukemia = system: RPMI-8226 leukemia

## COc1c(OCCCN2CCOCC2)ccc2c3n(c(=NC(=O)c4cnc(N)nc4)nc12)CCN3
IGROV1 ovarian
  GI50: < 5 nM
  TGI: 16.5 nM and 29.9 nM
MDA-MB-435 melanoma
  GI50: 237 nM
  TGI: > 100000 nM
MALME-3M melanoma
  GI50: 74.5 nM and 22.8 nM
  TGI: 396 nM and 204 nM
OVCAR-3 ovarian
  GI50: 69 nM and 43.9 nM
  TGI: 556 nM and 619 nM
HS 578T breast
  GI50: 55.7 nM and 30 nM
  TGI: 289 nM and 347 nM
OVCAR-5 ovarian
  GI50: 51.9 nM and 152 nM
  TGI: > 100000 nM
CAKI-1 renal
  GI50: 27 nM and 72.4 nM
  TGI: 317 nM
SNB-19 CNS
  GI50: 572 nM and 1040 nM
  TGI: > 100000 nM
EKVX NSCLC
  GI50: 22 nM and 56.8 nM
  TGI: 289 nM and 1160 nM
SK-MEL-5 melanoma
  GI50: 69.8 nM and 95.1 nM
  TGI: 197 nM and 431 nM
HOP-62 NSCLC
  GI50: 167 nM and 385 nM
  TGI: > 100000 nM
T-47D breast
  GI50: < 5 nM
  TGI: 25.6 nM and < 10.6 nM
CCRF-CEM leukemia
  GI50: 18 nM and 38.6 nM
  TGI: 5610 nM and 1330 nM
COLO 205 colon
  GI50: 26.9 nM and 48.5 nM
  TGI: 3670 nM and 3440 nM
HT29 colon
  GI50: 22.9 nM
  TGI: > 50000 nM
SN12C renal
  GI50: 77.7 nM
  TGI: > 50000 nM
SK-MEL-28 melanoma
  GI50: 71 nM and 56.2 nM
  TGI: 2560 nM
BT-549 breast
  GI50: 102 nM and 65.3 nM
  TGI: 2870 nM and 648 nM
NCI-H460 NSCLC
  GI50: 21.5 nM and 25.9 nM
  TGI: > 100000 nM
K-562 leukemia
  GI50: 2250 nM
  TGI: > 50000 nM
HCT-116 colon
  GI50: 101 nM and 163 nM
  TGI: > 50000 nM
NCI-H23 lung
  GI50: 472 nM and 248 nM
  TGI: > 50000 nM
OVCAR-8 ovarian
  GI50: 118 nM and 219 nM
  TGI: > 50000 nM
MOLT-4 leukemia
  GI50: 17.3 nM and < 11.8 nM
  TGI: 101 nM and 38.5 nM
A498 renal
  GI50: 53.9 nM and 68.3 nM
  TGI: 146 nM and 470 nM
SK-MEL-2 melanoma
  GI50: 224 nM
  TGI: 7360 nM
TK-10 renal
  GI50: 22.8 nM and 28 nM
  TGI: 583 nM and 612 nM
RPMI-8226 leukemia
  GI50: 129 nM and 122 nM
  TGI: 441 nM and 285 nM
